Results from patent US5716950A, “Diazacycloalkanealkylsulfonamide derivatives” (Nippon Shoji Kabushiki Kaisha, priority 1994, dated 1998).
Like-named read-outs stand apart in the source and are kept apart here.

Legend:
male ICR mice = experiment: Toxicity Test (mouse acute toxicity, minimum lethal dose); type: in vivo; settings: po, observed for 24 hours, head prints (10 mg/kg-po)
From the text: The test compounds were orally administered to male ICR mice (weighing to 30 g) after fasting overnight. […] The results were expressed by minimum lethal dose. Toxicity of any compounds of the present invention were weaker than that of ketotifen which was a reference compound.

[1] = system: mouse biphasic allergic dermal reaction; experiment: Mouse Biphasic Allergic Dermal Reaction; type: in vivo, Female Balb/c mice
Experimental: Female Balb/c mice (weighing 18 to 25 g) were subjected to passive sensitization by intravenous administration of 1 ml of anti-DNP monoclonal IgE antibody showing 1:1024 of antibody titer. 24 hours after the sensitization, 25 μl of 0.15% dinitrofluorobenzene (DNFB) were applied to both sides of right and left auricles of mouse for inducing allergic reactions. Thickness of auricles were measured using Dial Thickness Gauge before the challenge with DNFB, and 1 and 24 hours after the challenge. And then, increase in thickness of auricles at 1 hour after the challenge (edema caused by immediate allergic reaction) and that at 24 hours after the challenge (edema caused by late allergic reaction) were calculated against the thickness of auricles before the challenge with DNFB, respectively.
Suppression rate was expressed by relative ratio (%) to the value in control in which a solvent was administered.
Test compounds, diphenhydramine which is a existing classical antihistamic drug, amlexanox which is an antiallergic drug and dexamethasone which is a steroidal drug were administered orally (partly intraperitoneally) once before antigen challenge.
The above test was performed by using a mouse biphasic allergic dermal reaction model which was a new model [see, Sakurai T, Inagaki, N. and Nagai, H Life Sci., 54, PL291-295 (1994)]. In this model, the immediate allergic reaction was induced by mediator release from mast cell at 1 hour after the challenge, and the late allergic reaction with inflammatory cells such as eosinophil (edema after 24 hours) was induced after 24 hours from the challenge.

[2] = system: extracted ileum (histamine contraction); experiment: Antihistaminic activity: suppression of histamine-induced contraction of extracted ileum; design: species or system Female Hartley guinea pig; settings: histamine 3×10^-7 M; guinea pig ileum; 50% suppression of contraction; read-out: anti-His in extracted ileum EC50
Experimental: Female Hartley guinea pig (weighing 500 to 650 g) were sacrificed and the ileum (length of about 10 to 25 cm) was extracted from the ileocecum to prepare a specimen (length of 3 cm). […] After allowing to stand for 60 minutes to make the specimen stable, a histamine (3×10^-7 M) was applied to the specimen at single application. Contraction of the specimen was determined and recorded using isotonic transducer. After repeating application of a histamine to make the contraction constant, a diluted solution of the test compound was applied. Three minutes after the application, a histamine was then added and an activity of suppressing contraction was examined.

[3] = system: passive cutaneous anaphylaxis (PCA); experiment: Activity of suppressing passive cutaneous anaphylaxis (PCA); type: in vivo, Male Wistar rats; settings: Rattus norvegicus, po, 1 h, 10 mg/kg-po, 1 hour before antigen challenge; read-out: % suppression of rat PCA
Experimental: Test compounds were examined on their antiallergic activities. […] After 48 hours, 1.0 ml of 0.5 % Evans Blue saline solution containing DNP.BSA (1 mg in protein) was injected through the tail vein to induce allergic reaction. After 30 minutes, the rats were sacrificed by bleeding and the skin of back where dye was leaked out was flayed and put it into 20 ml test tube with ground stopper. Thereto was added 1.0 ml of 1N KOH aqueous solution and then it was allowed to stand at 37° C. in incubator overnight for lysing. To this solution was added 8.3 ml of a mixture of acetone and 0.6N phosphoric acid (13:5) and the mixture was mixed well and then was filtered to remove the insoluble materials.
The test compounds were administered orally 1 hour before the antigen challenge. Suppression rate was expressed by percentage to the value in control where 0.5% aqueous methylcellulose solution was orally administered.

O=S(=O)(CCCCCCN1CCN(C(c2ccc(F)cc2)c2ccccn2)CC1)NC1CC1 (stereo not shown) [Example 56]
mouse acute toxicity (lethal dose) (male ICR mice): > 500 mg/kg
inhibition in vivo at 1 mg/kg ([1]; Mus musculus, 1 h, oral, read-out: immediate edema (1 hr) suppression (%)): 15.8%
inhibition in vivo at 0.1 mg/kg ([1]; Mus musculus, 24 h, 0.1 mg/kg, oral, read-out: late edema (24 hr) suppression (%)): 3.8%
inhibition in vivo at 1 mg/kg ([1]; Mus musculus, 24 h, oral, read-out: late edema (24 hr) suppression (%)): 34.6%
suppression of the late allergic reaction (in words) ([1]; edema after 24 hours): showed strong activity of suppressing the late allergic reaction
EC50 [2]: 440 nM
inhibition in vivo at 10 mg/kg [3]: 94.5%
